{"source": "patent EP0584511B1", "about": "“PROCESS FOR THE PREPARATION OF A COMPOSITE TEXTILE MATERIAL” (ALCANTARA S.p.A., priority 1992, dated 1994)", "origin": "cited, not measured here", "conditions": "substituted aromatic amines proposed as replacement extenders; background statement", "data": [{"compound": "Cc1cc(Cc2cc(C)c(N)c(C(C)C)c2)cc(C(C)C)c1N", "note": "[4-4' methylene-bis-(2 isopropyl-6 methylaniline)]", "values": [{"measurement": "classification at Ames's test", "result": "non cancerogenic"}]}, {"compound": "CCc1cc(Cc2cc(CC)c(N)c(CC)c2Cl)c(Cl)c(CC)c1N", "note": "[4-4' methylene-bis-(3-chloro-2,6-diethylaniline)]", "values": [{"measurement": "classification at Ames's test", "result": "non cancerogenic"}]}, {"compound": "diethyltoluene diamine", "values": [{"measurement": "classification at Ames's test", "result": "non cancerogenic"}]}]}
